Data: patent publication US20230085307A1, “PYRIDAZINONE COMPOUND AND HERBICIDE” (NISSAN CHEMICAL CORPORATION, priority 2019, published 2023)

Experiments:
late watergrass = assay: Test Example 2: herbicidal activity, application during weed generation under submerged conditions (Table 17, symbol A); type: in vivo, late watergrass (Echinochloa oryzicola); settings: application during weed generation under submerged conditions
How it was run: (§1)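 Effect on each weed is rated three weeks post-treatment, using the same scoring criteria as the preceding test. Plants grow from mixed-sown seed in flooded alluvial soil (4 cm water) at 25° C. to 30° C., and are treated at one to two leaves with diluted emulsion dropped onto the water.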

Japanese bulrush = assay: Test Example 2: herbicidal activity, application during weed generation under submerged conditions (Table 17, symbol B); type: in vivo, Japanese bulrush (Schoenoplectus juncoides); settings: application during weed generation under submerged conditions
How it was run: as §1

barnyard grass [1] = assay: Test Example 3: herbicidal effect by foliage application, Wagner pot (Table 18, symbol H); type: in vivo, barnyard grass (Echinochloa crus-galli)
How it was run: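 Plants were sown in alluvial soil held under 0.1–0.5 cm standing water and grown 14 days in a greenhouse at 25–30 °C. An emulsifiable formulation, water-diluted to the set dose, was then sprayed onto the foliage, and effects were scored three weeks later using previously defined criteria.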

green foxtail = assay: Test Example 4: herbicidal effect by soil treatment (Table 19, symbol G); type: in vivo, green foxtail (Setaria viridis)
How it was run: (§2)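 Scoring uses the grading scale of an earlier test, three weeks post-application. Treatment consists of spraying a diluted emulsion formulation across the surface of sterilized diluvial soil in which seeds are buried near 1.5 cm deep; boxes are kept in a greenhouse between 25° C. and 30° C.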

barnyard grass [2] = assay: Test Example 4: herbicidal effect by soil treatment (Table 19, symbol H); type: in vivo, barnyard grass (Echinochloa crus-galli)
How it was run: as §2

wild oat = assay: Test Example 4: herbicidal effect by soil treatment (Table 19, symbol I); type: in vivo, wild oat (Avena fatua)
How it was run: as §2

blackgrass [3] = assay: Test Example 4: herbicidal effect by soil treatment (Table 19, symbol J); type: in vivo, blackgrass (Alopecurus myosuroides)
How it was run: as §2

Italian ryegrass [4] = assay: Test Example 4: herbicidal effect by soil treatment (Table 19, symbol K); type: in vivo, Italian ryegrass (Lolium multiflorum)
How it was run: as §2

velvetleaf [5] = assay: Test Example 4: herbicidal effect by soil treatment (Table 19, symbol M); type: in vivo, velvetleaf (Abutilon theophrasti)
How it was run: as §2

lambsquarters = assay: Test Example 4: herbicidal effect by soil treatment (Table 19, symbol O); type: in vivo, lambsquarters (Chenopodium album)
How it was run: as §2

chickweed [6] = assay: Test Example 4: herbicidal effect by soil treatment (Table 19, symbol P); type: in vivo, common chickweed (Stellaria media)
How it was run: as §2

blackgrass [7] = assay: Test Example 5: herbicidal effect by foliage application, plastic box (Table 20, symbol J); type: in vivo, blackgrass (Alopecurus myosuroides); settings: foliage application, evaluated 3 weeks after application
How it was run: (§3)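 Post-emergence foliar test in sterilized diluvial soil. Compound applied as water-diluted emulsion at a predetermined rate to 14-day-old plants; evaluation at three weeks.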

Italian ryegrass [8] = assay: Test Example 5: herbicidal effect by foliage application, plastic box (Table 20, symbol K); type: in vivo, Italian ryegrass (Lolium multiflorum); settings: foliage application, evaluated 3 weeks after application
How it was run: as §3

velvetleaf [9] = assay: Test Example 5: herbicidal effect by foliage application, plastic box (Table 20, symbol M); type: in vivo, velvetleaf (Abutilon theophrasti); settings: foliage application, evaluated 3 weeks after application
How it was run: as §3

redroot pigweed = assay: Test Example 5: herbicidal effect by foliage application, plastic box (Table 20, symbol N); type: in vivo, redroot pigweed (Amaranthus retroflexus); settings: foliage application, evaluated 3 weeks after application
How it was run: as §3

chickweed [10] = assay: Test Example 5: herbicidal effect by foliage application, plastic box (Table 20, symbol P); type: in vivo, common chickweed (Stellaria media); settings: foliage application, evaluated 3 weeks after application
How it was run: as §3

persian speedwell = assay: Test Example 5: herbicidal effect by foliage application, plastic box (Table 20, symbol R); type: in vivo, Persian speedwell (Veronica persica); settings: foliage application, evaluated 3 weeks after application
How it was run: as §3

[11] = amount of applied herbicide 320 g/ha
[12] = amount of applied herbicide 402 g/ha

Structure (SMILES) | herbicidal effect grade, A: late watergrass (late watergrass; [11]) | herbicidal effect grade, B: Japanese bulrush (Japanese bulrush; [11]) | Herbicidal effect on H (barnyard grass), foliage application (barnyard grass [1]; [11]) | G: green foxtail, herbicidal effect grade (green foxtail; [11]) | H: barnyard grass, herbicidal effect grade (barnyard grass [2]; [11]) | I: wild oat, herbicidal effect grade (wild oat; [11]) | J: blackgrass, herbicidal effect grade (blackgrass [3]; [11]) | K: Italian ryegrass, herbicidal effect grade (Italian ryegrass [4]; [11]) | M: velvetleaf, herbicidal effect grade (velvetleaf [5]; [11]) | O: lambsquarters, herbicidal effect grade (lambsquarters; [11]) | P: chickweed, herbicidal effect grade (chickweed [6]; [11]) | J (blackgrass) herbicidal effect grade (blackgrass [7]; 320 g/ha) | K (Italian ryegrass) herbicidal effect grade (Italian ryegrass [8]; 320 g/ha) | M (velvetleaf) herbicidal effect grade (velvetleaf [9]; 320 g/ha) | N (redroot pigweed) herbicidal effect grade (redroot pigweed; 320 g/ha) | P (chickweed) herbicidal effect grade (chickweed [10]; 320 g/ha) | R (persian speedwell) herbicidal effect grade (persian speedwell; 320 g/ha) | also measured
CCCC(=O)Oc1c(C)nn(C)c(=O)c1-c1c(-c2ccc(SCC)cc2)oc2ccc(C)cc12 [9-058] | 4 (Herbicidal rate of 70% or more and less than 90%) | 3 (Herbicidal rate of 40% or more and less than 70%) | 5 (Herbicidal rate of 90% or more (almost completely withered)) | 5 (Herbicidal rate of 90% or more (almost completely withered)) | 2 (Herbicidal rate of 20% or more and less than 40%) | 0 (Herbicidal rate of 5% or less (almost no effect)) | 0 (Herbicidal rate of 5% or less (almost no effect)) | 5 (Herbicidal rate of 90% or more (almost completely withered)) | 3 (Herbicidal rate of 40% or more and less than 70%) | 5 (Herbicidal rate of 90% or more (almost completely withered)) | 3 (Herbicidal rate of 40% or more and less than 70%) | 3 (Herbicidal rate of 40% or more and less than 70%) | 5 (Herbicidal rate of 90% or more (almost completely withered)) | 5 (Herbicidal rate of 90% or more (almost completely withered)) | 5 (Herbicidal rate of 90% or more (almost completely withered)) | 5 (Herbicidal rate of 90% or more (almost completely withered)) | 5 (Herbicidal rate of 90% or more (almost completely withered)) | –
Cc1ccc2oc(-c3ccc(SC(C)C)cc3)c(-c3c(O)c(C)nn(C)c3=O)c2c1 [9-059] | 4 (Herbicidal rate of 70% or more and less than 90%) | 3 (Herbicidal rate of 40% or more and less than 70%) | 5 (Herbicidal rate of 90% or more (almost completely withered)) | 3 (Herbicidal rate of 40% or more and less than 70%) | 1 (Herbicidal rate of 5% or more and less than 20%) | 0 (Herbicidal rate of 5% or less (almost no effect)) | 0 (Herbicidal rate of 5% or less (almost no effect)) | 4 (Herbicidal rate of 70% or more and less than 90%) | 3 (Herbicidal rate of 40% or more and less than 70%) | 5 (Herbicidal rate of 90% or more (almost completely withered)) | 5 (Herbicidal rate of 90% or more (almost completely withered)) | 1 (Herbicidal rate of 5% or more and less than 20%) | 5 (Herbicidal rate of 90% or more (almost completely withered)) | 5 (Herbicidal rate of 90% or more (almost completely withered)) | 5 (Herbicidal rate of 90% or more (almost completely withered)) | 5 (Herbicidal rate of 90% or more (almost completely withered)) | 5 (Herbicidal rate of 90% or more (almost completely withered)) | –
CCCC(=O)Oc1c(C)nn(C)c(=O)c1-c1c(-c2ccc(SC(C)C)cc2)oc2ccc(C)cc12 [9-060] | – | – | – | – | – | – | – | – | – | – | – | – | – | – | – | – | – | herbicidal effect grade, A: late watergrass (late watergrass; [12]): 4 (Herbicidal rate of 70% or more and less than 90%); herbicidal effect grade, B: Japanese bulrush (Japanese bulrush; [12]): 3 (Herbicidal rate of 40% or more and less than 70%); Herbicidal effect on H (barnyard grass), foliage application (barnyard grass [1]; [12]): 4 (Herbicidal rate of 70% or more and less than 90%); G: green foxtail, herbicidal effect grade (green foxtail; [12]): 3 (Herbicidal rate of 40% or more and less than 70%); H: barnyard grass, herbicidal effect grade (barnyard grass [2]; [12]): 0 (Herbicidal rate of 5% or less (almost no effect)); I: wild oat, herbicidal effect grade (wild oat; [12]): 0 (Herbicidal rate of 5% or less (almost no effect)); J: blackgrass, herbicidal effect grade (blackgrass [3]; [12]): 0 (Herbicidal rate of 5% or less (almost no effect)); K: Italian ryegrass, herbicidal effect grade (Italian ryegrass [4]; [12]): 4 (Herbicidal rate of 70% or more and less than 90%); M: velvetleaf, herbicidal effect grade (velvetleaf [5]; [12]): 3 (Herbicidal rate of 40% or more and less than 70%); O: lambsquarters, herbicidal effect grade (lambsquarters; [12]): 4 (Herbicidal rate of 70% or more and less than 90%); P: chickweed, herbicidal effect grade (chickweed [6]; [12]): 1 (Herbicidal rate of 5% or more and less than 20%); J (blackgrass) herbicidal effect grade (blackgrass [7]; 402 g/ha): 1 (Herbicidal rate of 5% or more and less than 20%); K (Italian ryegrass) herbicidal effect grade (Italian ryegrass [8]; 402 g/ha): 5 (Herbicidal rate of 90% or more (almost completely withered)); M (velvetleaf) herbicidal effect grade (velvetleaf [9]; 402 g/ha): 5 (Herbicidal rate of 90% or more (almost completely withered)); N (redroot pigweed) herbicidal effect grade (redroot pigweed; 402 g/ha): 5 (Herbicidal rate of 90% or more (almost completely withered)); P (chickweed) herbicidal effect grade (chickweed [10]; 402 g/ha): 5 (Herbicidal rate of 90% or more (almost completely withered)); R (persian speedwell) herbicidal effect grade (persian speedwell; 402 g/ha): 5 (Herbicidal rate of 90% or more (almost completely withered))
CCCC(=O)Oc1c(C)nn(C)c(=O)c1-c1c(-c2ccc(COC)cc2)oc2ccc(C)cc12 [9-062] | 3 (Herbicidal rate of 40% or more and less than 70%) | 3 (Herbicidal rate of 40% or more and less than 70%) | 5 (Herbicidal rate of 90% or more (almost completely withered)) | 5 (Herbicidal rate of 90% or more (almost completely withered)) | 4 (Herbicidal rate of 70% or more and less than 90%) | 0 (Herbicidal rate of 5% or less (almost no effect)) | 4 (Herbicidal rate of 70% or more and less than 90%) | 5 (Herbicidal rate of 90% or more (almost completely withered)) | 5 (Herbicidal rate of 90% or more (almost completely withered)) | 4 (Herbicidal rate of 70% or more and less than 90%) | 3 (Herbicidal rate of 40% or more and less than 70%) | 4 (Herbicidal rate of 70% or more and less than 90%) | 5 (Herbicidal rate of 90% or more (almost completely withered)) | 5 (Herbicidal rate of 90% or more (almost completely withered)) | 5 (Herbicidal rate of 90% or more (almost completely withered)) | 5 (Herbicidal rate of 90% or more (almost completely withered)) | 5 (Herbicidal rate of 90% or more (almost completely withered)) | –
